From patent publication US8710045B2, “Agents for preventing and treating disorders involving modulation of the ryanodine receptors” (The Trustees of Columbia University in the City of New York, priority 2004, dated 2014)
pEC50: −log10 of the molar value. Values joined by “and” are separate entries in the source; they are usually repeats but may differ in a detail not shown here. Equal values may be shown once.

Legend:
[1] = target: T1, PKA-phosphorylated RyR2 (Homo sapiens, UniProt Q92736); experiment: FKBP12.6 rebinding assay: FKBP12.6 binding to PKA-phosphorylated RyR2 in cardiac SR
T1 construct: from tissue
Description: Samples are centrifuged at 95,000 g for 10 min and the pellets are washed three times in 0.2 ml imidazole buffer. The final pellets are pooled and resuspended in imidazole buffer (final concentration≈10 μg/μl). […] Samples then are centrifuged at 100,000 g for 10 minutes and pellets washed 3 times with imidizol buffer. […] Immunoblots are developed using an anti-FKBP antibody (1:3,000 dilution). […] The intracellular solution contains (in mM): CsCl, 60; CaCl2, 1; EGTA, 11; MgCl2, 1; K2ATP, 5; HEPES, 10; aspartic acid, 50; pH 7.4 (CsOH). Under these conditions, it is expected that the measured current was carried by Ba^2+ primarily through L-type calcium channels which is referred to as ICa,L. Drugs are applied by a local solution changer and reach the cell membrane within 1 s.
The FKBP12.6 rebinding assay described above is used to determine the amount of FKBP12.6 binding to PKA-phosphorylated RyR2 at various concentrations (0.5-1000 nM) of the compounds shown. EC50 values are calculated using Michaelis-Menten curve fitting.
The EC50 values are calculated using Michaelis-Menten curve fitting.

[2] = test system: Wild-type mice; experiment: Chronic heart failure after myocardial infarction (LAD ligation) in wild-type mice; assay type: in vivo, mouse; details: plasma concentration 200 nM, vs placebo
Description: Wild-type mice are subjected to permanent ligation of the left anterior descending coronary artery resulting in myocardial infarction. Seven days following myocardial infartion, mice are treated with S36 (plasma concentration 200 nM) or placebo.

[3] = test system: EDL muscle; experiment: Isometric force production of isolated EDL muscle after chronic exercise; assay type: in vivo, mouse; details: stimulation frequencies greater than 80 Hz
Description: Intact muscle preparation: Immediately following a forced exercise session, each mouse was sacrificed by carbon dioxide inhalation and cervical dislocation. Blood was removed by intracardiac aspiration, spun down, and plasma was eluted and frozen in liquid nitrogen. 4-0 silk sutures were tied to the proximal and distal tendons of intact EDL and soleus muscles and the muscles were dissected free and placed in a modified Ringer's solution (140 mM NaCl, 5 mM KCl, 2.0 mM CaCl2, 2 mM MgCl2, 10 mM HEPES, 10 mM glucose, pH 7.4) bubbled with 100% O2. […] After perfusion with 35C Ringer's and equilibration for 10 minutes at a resting tension of 1 cN and a brief potentiation protocol, force-frequency relationships were measured, with 60 second delays between 800 ms stimulations at 40-150 Hz. […] Following stimulation, muscle length was determined at resting tension, and muscle dry weight was recorded.
Age and sex-matched WT mice were randomized to receive osmotic pumps containing either S107 or vehicle. […] Exercise capacity was assessed once a week by a level treadmill run to exhaustion during the nocturnal cycle of the mouse. […] Isometric force production was measured in EDL muscles in a tissue bath during field stimulation.

[4] = Plasma creatine kinase (CPK) activity in chronically exercised mice; assay type: in vivo, mouse
Description: Calpain and Creatine Kinase Assays: Tissue calpain activities were measured using a calpain activity assay kit (Calbiochem, San Diego, Calif.) (FIG. 42B). This assay is based on the degradation of the fluorescent peptide substrate Suc-LLVY-AMC (Calbiochem). Muscle homogenates were diluted to a final concentration of 600 μg/ml and the calpain activity in the homogenate was determined as per manufactures instructions. Plasma creatine kinase (CK) activity was assayed using the regent kit from Pointe Scientific, Inc. (Canton, Mich.) (FIG. 42A). Plasma samples (duplicates, 5 μl each) were added to 200 μl of CK reagent and the change in absorbance at 340 nm was recorded over 4 minutes using a plate reader. The average absorbance change per minute was used to determine the CPK levels as per manufacturer's instructions.
Reduced calpain activation in muscle tissue and reduced muscle tissue damage due to calstabin1 rebinding: One possible mechanism by which calcium released by leaky RyR1 channels impairs exercise performance is the activation of a member of the calpain family of Ca^2+-dependent neutral proteases, which are known to be responsible for muscle damage in a number of pathophysiological states. […] Calpain activity in muscle homogenates was assessed by means of the degradation of the synthetic calpain substrate Suc-LLVY-AMC, which fluoresces upon cleavage by calpain.

[5] = target: hERG current (Homo sapiens, UniProt Q12809); experiment: hERG current, PatchXpress 7000A automatic parallel patch clamp in hERG-transfected HEK 293 cells (Example 6); details: for Individual Data (% Inhibition): single cell
Description: HEK293 cells were transfected with a plasmid containing the hERG cDNA and a neomycin resistance gene. Stable transfectants were selected by culturing the cells in the presence of G418. The selection pressure was maintained by continued culture in the presence of G418. […] Cells for use in electrophysiology were cultured in 35 mm dishes.
Onset and steady state block of hERG current was measured using a pulse pattern with fixed amplitudes (conditioning prepulse: +20 mV for 2 seconds; test pulse: −50 mV for 2 seconds) repeated at 10 second intervals, from a holding potential of −80 mV. Peak tail current was measured during the 2 second step to −50 mV. A steady state was maintained for at least 30 seconds before applying the test compound or the positive control. Peak tail current was monitored until a new steady state was achieved. Test compound concentrations were applied cumulatively in ascending order without washout between applications.
Data acquisition and analysis was performed using the suite of pCLAMP (Vre. 8.2) programs (Axon Instruments, Union City, Calif.). Steady state was defined by the limiting constant rate of change with time (linear time dependence). The steady state before and after application of the test or control compounds was used to calculate the percentage of current inhibited at each concentration. […] Nonlinear squares fits were solved with the Solver add-in for Excel 2000 (Microsoft, Redmond, Wash.).
Multiple compounds of the invention were tested for their effects on hERG currents. The compounds tested were: ARM036-Na, ARM047, ARM048, ARM050, ARM057, ARM064, ARM074, ARM075, ARM076, ARM077, ARM101, ARM102, ARM103, ARM104, ARM106, ARM107 and ARM26. […] Electrophysiological recordings were made using the PatchXpress 7000 A (Molecular Devices) automatic parallel patch clamp system. […] The duration of exposure to each test concentration was 5 minutes.

Sequence of hERG current (Q12809 whole entry): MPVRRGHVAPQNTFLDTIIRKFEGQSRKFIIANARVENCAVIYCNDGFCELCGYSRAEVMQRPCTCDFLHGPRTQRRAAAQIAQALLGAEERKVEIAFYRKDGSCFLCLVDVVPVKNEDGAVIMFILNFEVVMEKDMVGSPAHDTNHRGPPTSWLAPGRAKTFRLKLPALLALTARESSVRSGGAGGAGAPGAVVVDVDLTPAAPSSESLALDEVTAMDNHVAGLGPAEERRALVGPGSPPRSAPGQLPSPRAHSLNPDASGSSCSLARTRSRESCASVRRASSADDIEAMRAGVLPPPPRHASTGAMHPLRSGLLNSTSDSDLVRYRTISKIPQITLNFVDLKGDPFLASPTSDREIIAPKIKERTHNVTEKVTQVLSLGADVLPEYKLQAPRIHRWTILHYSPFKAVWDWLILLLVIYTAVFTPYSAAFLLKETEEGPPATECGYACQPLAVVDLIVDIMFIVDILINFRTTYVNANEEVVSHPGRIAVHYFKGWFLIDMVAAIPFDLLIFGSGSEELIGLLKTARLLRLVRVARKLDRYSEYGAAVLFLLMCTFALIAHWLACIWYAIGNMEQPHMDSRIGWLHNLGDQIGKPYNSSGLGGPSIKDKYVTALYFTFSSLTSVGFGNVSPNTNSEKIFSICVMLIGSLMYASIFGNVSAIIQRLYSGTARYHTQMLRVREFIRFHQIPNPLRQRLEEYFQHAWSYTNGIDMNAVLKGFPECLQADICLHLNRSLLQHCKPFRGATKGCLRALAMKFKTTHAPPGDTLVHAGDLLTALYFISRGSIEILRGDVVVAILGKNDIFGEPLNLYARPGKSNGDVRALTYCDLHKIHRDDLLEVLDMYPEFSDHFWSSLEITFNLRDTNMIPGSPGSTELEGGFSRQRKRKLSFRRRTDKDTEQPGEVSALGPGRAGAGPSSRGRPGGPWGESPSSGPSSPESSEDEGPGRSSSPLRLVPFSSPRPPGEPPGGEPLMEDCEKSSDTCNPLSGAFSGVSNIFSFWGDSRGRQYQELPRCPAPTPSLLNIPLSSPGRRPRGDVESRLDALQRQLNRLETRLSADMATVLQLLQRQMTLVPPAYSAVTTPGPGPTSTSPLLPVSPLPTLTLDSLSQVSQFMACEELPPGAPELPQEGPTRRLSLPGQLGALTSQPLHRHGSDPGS

Compound	potency at increasing the binding of FKBP12.6 and RyR2 compared with JTV-519 [1]	pEC50 ([1]; compound 0.5-1000 nM, Michaelis-Menten curve fitting)	Heart weight to body weight (HW/BW) ratio [2]	pressure-volume loop quantification (dP/dt) [2]	EDL isometric force production [3]	plasma CPK activity levels [4]	Mean % hERG Inhibition ([5]; 0.01 μM) [%]	Individual Data (% Inhibition) ([5]; 0.01 μM, listed as ARM107, 0.01 µM)	Mean % hERG Inhibition ([5]; 0.1 μM) [%]	Individual Data (% Inhibition) ([5]; 0.1 μM, listed as ARM107, 0.1 µM)	Mean % hERG Inhibition ([5]; 1 μM) [%]	Individual Data (% Inhibition) ([5]; 1 μM, listed as ARM107, 1 µM)	Mean % hERG Inhibition ([5]; 10 μM) [%]	Individual Data (% Inhibition) ([5]; 10 μM, listed as ARM107, 10 µM)	hERG current inhibition at the highest concentration tested ([5]; highest concentration tested (10 μM))
COc1ccc2c(c1)CN(C(=O)C(=O)O)CCS2 [S36]	more potent	7.82	reverse remodeling	improved cardiac contractility	–	–	–	–	–	–	–	–	–	–	–
COc1ccc2c(c1)CN(C)CCS2 [S107]	–	–	–	–	increased force production	reduced close to the levels observed in sedentary controls	2.9	1.7% and 4.0%	4.0	3.1% and 4.8%	6.2	2.0% and 10.4%	32.1	24.2% and 39.9%	less than 50%
